The nature of this series: gradient 5% acetonitrile 3 min, to 50% in 2 min, to 85% in 15 min, held 3 min, 100 µL/min. Particulars: column: Zorbax Extend-C18 2.1 x 50 mm; eluents: water / acetonitrile, 0.1% formic acid. A digest of the protocol:
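Over 3 months, pure standards in mixtures of ~100 molecules were run by HPLC coupled to a quadrupole time-of-flight mass spectrometer in positive and negative ionization mode. The column was a Zorbax Extend-C18 (2.1 × 50 mm, 1.8 μm) at 100 μL/min, eluted with water and acetonitrile each holding 0.1% formic acid, with 40 μL dead and 900 μL dwell volumes. Retention time was determined from adduct peaks chosen by software and checked manually.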
In turn, `Cc1ccc2c(c1)N(S(C)(=O)=O)CCC(C(=O)NCc1ccccc1C)O2` (stereo unspecified) yielded an RP-LC retention time of 900 s.

Molecule `CCn1cnc(S(=O)(=O)N2CCC(C(=O)Nc3ccc(OC)cc3OC)CC2)c1` had an RP-LC retention time of 706 s.

The molecule `O=C(Cn1cnc2nc(N3CCC(C(=O)NC4CC4)CC3)sc2c1=O)Nc1ccccc1` registered an RP-LC retention time of 650 s.

`Cn1nc2n(c1=O)CCN(S(=O)(=O)c1ccccc1C(F)(F)F)CC2` came in with an RP-LC retention time of 675 s.

Molecule `Cc1nc(N2CCOCC2)c2c(C(=O)Nc3cccc(Cl)c3)c(C)oc2n1` came in with an RP-LC retention time of 890 s.

For the molecule `Cc1ccn2c(=O)c(C(=O)Nc3nc(C)cs3)cnc2c1`, the RP-LC retention time was 673 s.

Molecule `Cc1ccc(-c2c(N3CCN(c4ccccn4)CC3)c(=O)c2=O)cc1C` showed an RP-LC retention time of 708 s.

Turning to `CC(=O)Nc1nc2c(s1)CN(CC(=O)Nc1ccc(F)c(Cl)c1)CC2`, the RP-LC retention time stood at 573 s.

As for `C=CCn1c(=O)c2ccccc2n(Cc2nc(-c3ccc(OC(C)C)cc3)no2)c1=O`, the RP-LC retention time stood at 1130 s.

In the case of `Cc1nc(-c2cn(C)c3ncccc23)sc1C(=O)Nc1ccc(F)cc1`, the RP-LC retention time came to 1130 s.

`CN(C)c1ccc(CCNC(=O)C(=O)NC2CC2)cc1` showed an RP-LC retention time of 523 s.

Take `O=C(CSc1nnc(-c2ccco2)n1-n1cccc1)Nc1cccc(C(F)(F)F)c1`: the RP-LC retention time was found to be 897 s.

`O=C(NCCC1=CCCCC1)c1nc(-c2ccnc(N3CCCC3)c2)no1`: the RP-LC retention time stood at 747 s.

`CCCOc1ccccc1C(=O)N(Cc1ccc(Br)o1)C1CCS(=O)(=O)C1` (stereo unspecified) came in with an RP-LC retention time of 927 s.

Take `CCOc1ccc(-c2noc(Cn3c(=O)n(C(C)CC)c(=O)c4ccccc43)n2)cc1OC` (stereo unspecified): the RP-LC retention time turned out to be 1140 s.

Molecule `Cc1cc(C)c(C)c(S(=O)(=O)N2CCCC2c2nc(-c3ccccc3)no2)c1C` (stereo unspecified) gave an RP-LC retention time of 1330 s.

The molecule `COc1ccc(CNC(=O)Cn2c(C(F)(F)F)nc3cc4c(cc32)OCCO4)cc1OC` yielded an RP-LC retention time of 764 s.

As for `O=C(Cn1c(=O)c2cc(-c3ccco3)nn2c2ncccc21)Nc1ccc(F)cc1`, the RP-LC retention time was determined as 814 s.

As to `Cc1cc2[nH]c(C(=O)NC(C)c3cccnc3)c(CN3CCCCC3)c2s1` (stereo unspecified), the RP-LC retention time was found to be 587 s.

Molecule `COC(=O)c1cccc(NC(=O)C2CCc3nc(N4CCOCC4)ncc3C2)c1` (stereo unspecified) came in with an RP-LC retention time of 746 s.

Molecule `Cn1cccc1C(=O)NCCn1c(=O)n(Cc2ccc(F)cc2)c2cccnc21` showed an RP-LC retention time of 804 s.

In turn, `CCCN1C(=O)c2cc(S(=O)(=O)Nc3ccccc3F)ccc2Oc2cccnc21` yielded an RP-LC retention time of 1030 s.

`CCc1nc(-c2csc(S(=O)(=O)N3CCCC(C(=O)Nc4ccc(C)c(Cl)c4)C3)c2)no1` (stereo unspecified) showed an RP-LC retention time of 1180 s.

`Cc1ccc(C)c(CNC(=O)C2(c3ccc(NS(C)(=O)=O)cc3)CCCCC2)c1` came in with an RP-LC retention time of 973 s.

`CCC1=NS(=O)(=O)c2cccnc2N1c1ccc(OC)cc1` registered an RP-LC retention time of 819 s.

In turn, `CN1CCc2nc(C(=O)N[C@@H]3C[C@@H](C(=O)N(C)C)CC[C@@H]3NC(=O)C(=O)Nc3ccc(Cl)cn3)sc2C1` returned an RP-LC retention time of 652 s.

With `CCNC(=O)N(CCOC)CC(=O)N1CCc2sccc2C1COc1ccccc1` (stereo unspecified), the RP-LC retention time was 815 s.

As for `O=C(c1ccccn1)N1CCN(C(=O)c2nnn3c2COC(c2ccc(Cl)cc2)C3)CC1` (stereo unspecified), the RP-LC retention time was 784 s.

`CC1OC(O[C@@H]2C=C3CC[C@@H]4[C@H](CC[C@]5(C)[C@@H](c6ccc(=O)oc6)CC[C@]45O)[C@@]3(C)CC2)C(O)C(O)C1O` (stereo partly specified): the RP-LC retention time stood at 691 s.

`Cc1cc(OCC(=O)Nc2ccccc2C(F)(F)F)nc(N2CCN(c3ccccc3)CC2)n1` returned an RP-LC retention time of 971 s.

Molecule `COc1ccc(NC(=O)NCCc2nc3cccnc3n2C2CCCC2)c(OC)c1` yielded an RP-LC retention time of 708 s.

The record behind these values is the METLIN SMRT retention time set (Domingo-Almenara et al. 2019).
